From patent US11161845B2, “Pyrrolopyridine-aniline compounds for treatment of dermal disorders” (Nflection Therapeutics, Inc., priority 2017, dated 2021)
pIC50: −log10 of the molar value. Where two headings read alike, the source gives them in different places.

Columns and labels:
[1] = S9 stability assay, human liver S9 fraction; format: in vitro ADME; details: for half-life at 1 μM / microsomal CLint at 1 μM: pH 7.4
Protocol: Compounds were assessed for metabolic stability in human skin by assessing their rate of disappearance from human S9 skin fraction. Similarly, compounds were assessed for metabolic stability in human liver by assessing their rate of disappearance from human S9 liver fraction. The protocol below can be used to assess the difference between skin and hepatic metabolism.
The assay was carried out in 96-well microtiter plates at 37° C. Reaction mixtures (25 μL) contained a final concentration of 1 μM test compound, 2 mg/mL liver or skin S9 protein, and 1 mM NADPH in buffer (100 mM potassium phosphate, pH 7.4 buffer with 1 mM EDTA, 3 mM MgCl2). At each of the time points (0, 15, 30, and 60 minutes), 150 μL of quench solution (100% acetonitrile with 0.1% formic acid) with internal standard was transferred to each well. Besides the zero minute controls, mixtures containing the same components except the NADPH were also prepared as the negative control. Verapamil or testosterone was included as a positive control to verify assay performance. Plates were sealed and centrifuged at 4° C. for 15 minutes at 4000 rpm. The supernatant was transferred to fresh plates for LC/MS/MS analysis.
All samples were analyzed on LC/MS/MS using an AB Sciex API 4000 instrument, coupled to a Shimadzu LC-20AD LC Pump system. Analytical samples were separated using a Waters Atlantis T3 dC18 reverse phase HPLC column (20 mm×2.1 mm) at a flow rate of 0.5 mL/min. The mobile phase consisted of 0.1% formic acid in water (solvent A) and 0.1% formic acid in 100% acetonitrile (solvent B).
The extent of metabolism was calculated as the disappearance of the test compound, compared to the 0-min control reaction incubations. Initial rates were calculated for the compound concentration and used to determine t1/2 values and subsequently, the intrinsic clearance, CLint=(0.693) (1/t1/2 (min)) (mL incubation/mg of S9 protein).

MEK1 = target: T1, MEK1 (Homo sapiens, UniProt Q02750); assay: MEK inhibition assay, Biological Example 1a (33P-ATP, P81 filter-binding); details: read-out: Assay 1: biochemical MEK IC50
T1 construct: N-terminal His-tagged recombinant human full length protein; His (N); purchased Invitrogen PV3303; host or cells: insect cells
T1 sequence (Q02750 whole entry): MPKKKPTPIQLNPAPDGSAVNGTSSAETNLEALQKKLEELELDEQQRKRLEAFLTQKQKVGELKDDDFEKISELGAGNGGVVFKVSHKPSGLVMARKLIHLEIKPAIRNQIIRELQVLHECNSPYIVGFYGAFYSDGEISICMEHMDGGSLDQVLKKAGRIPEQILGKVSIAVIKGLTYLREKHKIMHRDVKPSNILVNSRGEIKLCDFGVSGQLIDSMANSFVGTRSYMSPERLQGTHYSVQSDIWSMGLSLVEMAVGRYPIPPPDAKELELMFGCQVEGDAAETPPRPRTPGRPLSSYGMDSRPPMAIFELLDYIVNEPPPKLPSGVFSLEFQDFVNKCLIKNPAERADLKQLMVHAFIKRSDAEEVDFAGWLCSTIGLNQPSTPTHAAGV
Protocol: MEK1 inhibitory activity of compounds were tested using the following procedure. […] Activated in vitro by RAF1. MW=49.2 kDa, GenBank Accession No. NP_002746. • Substrate: 5 μM ERK2 (K52R), • Kinase-dead mutant, (GenBank Accession No. NM_0011949), aa2-358 with N-terminal His6 tag, MW=43.63 kDa, expressed in E. coli.
The substrate was prepared in freshly prepared Reaction Buffer. The kinase was delivered into the substrate solution and gently mixed. Test compounds were delivered in 100% DMSO into the kinase reaction mixture by Acoustic technology (Echo550; nanoliter range), and incubated for 20 min at room temperature. ^33P-ATP was delivered into the reaction mixture to initiate the reaction. The reaction mixture was incubated for 2 hours at room temperature. Kinase activity was detected by P81 filter-binding method.

HCT116 cells = assay: HCT116 (Kras) GI50 cell-based assay (Cell Titer-Glo); details: Homo sapiens, HCT-116; 72 hours; read-out: Assay 3: HCT116 (Kras) GI50
Protocol: (§1) Alternatively, the following procedure can be used to measure cell-based activity. Test compounds were dissolved in DMSO in 10 mM stock. Cell Titer-Glo® 2.0 Luminescent cell viability assay reagent was purchased from Promega (Madison, Wis.). A375 and HCT116 cell lines were purchased from American Type Culture Collection (Manassas, Va.). For A375 cells, cell culture media was DMEM+10% FBS. For HCT116 cells, cell culture media was McCoy's 5A+10% FBS. All media were supplemented with 100 μg/mL of penicillin, and 100 μg/mL of streptomycin. Cultures were maintained at 37° C. in a humidified atmosphere of 5% CO2 and 95% air.
(§2) Test compounds were diluted in DMSO solution with 10-dose and 3-fold dilutions in a source plate starting at 10 mM. 25 nL of each test compound was delivered from the source plate to each well of the 384-well cell culture plates (T=Final) by Echo 550. 25 μL of culture medium containing 2000 of A375 or HCT116 cells was added to each of the wells in duplicates of the cell culture plates (T=0 and T=Final). 25 μL of Cell Titer Glo 2.0 reagent was added to each well of cell culture plate (T=0). The contents were mixed on an orbital shaker for 2 min and incubated at room temperature for 15 min to stabilize luminescent signal. Luminescence was recorded by Envision 2104 Multilabel Reader (PerkinElmer, Santa Clara, Calif.). The number of viable cells in culture was determined based on quantitation of the ATP present in each culture well. The cells in cell culture plate (T=Final) were incubated with the compounds at 37° C., 5% CO2 for 72 hours. 25 μL of Cell Titer Glo 2.0 reagent was added to each well. The contents were mixed on an orbital shaker for 2 min and incubated at room temperature for 15 min to stabilize luminescent signal. Luminescence was recorded by Envision 2104 Multilabel Reader (PerkinElmer, Santa Clara, Calif.). The number of viable cells in culture was determined based on quantitation of the ATP present in each culture well. The G150 curves were plotted using the GraphPad Prism 4 program based on a sigmoidal dose-response equation Y=Bottom+(Top−Bottom)/(1+10^((Log EC50−X)*HillSlope)). All parameters in the equation were calculated by GraphPad Prism 4 program. […] Accordingly, GI50 is the value of 10^X, where X was calculated by the Curve Fitting Equation when Y=50 using Excel.

A375 cells = assay: A375 (BRAF) GI50 cell-based assay (Cell Titer-Glo); details: Homo sapiens, A-375; 72 hours; read-out: Assay 2: A375 (BRAF) GI50
Protocol: as §1, §2

MAP2K1 (MEK1) = target: T2, MAP2K1 (MEK1) (Homo sapiens, UniProt Q02750); assay: MEK inhibition assay, Biological Example 1b (Z'-LYTE); details: Biological Example 1b (compounds 8, 10, 12 and 13); read-out: Assay 1: biochemical MEK IC50
T2 construct: purchased ThermoFisher
T2 sequence (Q02750 whole entry): as above
Protocol: MEK1 inhibitory activity of compounds were tested using the following procedure (protocol available at thermofisher.com/content/dam/LifeTech/migration/files/drug-discovery/pdfs.par.60256.file.dat/20130430%20ssbk%20customer %20protocol%20and %20assay%20conditions.pdf). The Z′-LYTE biochemical assay (ThermoFisher) employs a fluorescence-based, coupled-enzyme format and is based on the differential sensitivity of phosphorylated and non-phosphorylated peptides to proteolytic cleavage.
Test compounds in 100% DMSO were screened in 1% DMSO (final) in the well. For 10 point titrations, 3-fold serial dilutions are conducted from the starting concentration of 30 μM.
After the 1 hour incubation, 5 μL of a 1:1024 dilution of Development Reagent A (available from Invitrogen, catalog no. PV3295) was added.
ATP solutions were diluted to a 4× working concentration in Kinase Buffer (50 mM HEPES pH 7.5, 0.01% BRIJ-35, 10 mM MgCl2, 1 mM EGTA). ATP Km apparent was previously determined using a Z′-LYTE assay. The Development Reagent was diluted in Development Buffer (available from Invitrogen, catalog no. P3127).
Assay Protocol: 2.5 μL of 4× test compound or 100 nL of 100× Test Compound plus 2.4 μL Kinase Buffer, 5 μL of the 2× Peptide/Kinase Mixture, 2.5 μL of 4×ATP Solution were added to the plates and placed on a shake plate for 30-seconds. The kinase reaction was allowed to proceed for 60-minute at room temperature, before 5 μL of Development Reagent Solution was added, and the mixture agitated for 30-seconds on a shake plate. The mixture was incubated for 60-minute at room temperature. Fluorescence was measured using a plate reader and the data were analyzed.
This control yielded 100% cleaved peptide in the Development Reaction. The 100% Phosphorylation Control, which consisted of a synthetically phosphorylated peptide of the same sequence as the peptide substrate, was designed to allow for the calculation of percent phosphorylation. This control yielded a very low percentage of cleaved peptide in the Development Reaction. The 0% Phosphorylation and 100% Phosphorylation Controls allow for the calculation of the percent phosphorylation achieved in a specific reaction well.
The minimum emission ratio in a screen was established by the 0% Inhibition Control, which contained active kinase. This control was designed to produce a 10-50% phosphorylated peptide in the Kinase Reaction. […]
A known inhibitor control standard curve, 10 point titration, was run for each individual kinase on the same plate as the kinase to ensure the kinase was inhibited within an expected IC50 range previously determined.
The following controls are prepared for each concentration of Test Compound assayed. […] The expected value for a non-fluorescence compound should be 0%. […]
The data in Table A was calculated. […]

[2] = human, liver S9 fraction, Table 2, 1 μM, 2 mg/mL S9 protein, NADPH, read-out: Assay 4: human liver S9 half-life
[3] = human, liver S9 fraction, Table 2, 1 μM, 2 mg/mL S9 protein, NADPH, read-out: Assay 5: human liver S9 instrinsic clearance value

Row | Compound | half-life at 1 μM [1, 2] [min] | microsomal CLint at 1 μM [1, 3] [µL/min/mg] | pIC50 (MEK1) | GI50 (HCT116 cells) [nM] | GI50 (A375 cells) [nM] | Assay 5: human liver S9 instrinsic clearance value ([1]; Table 2, 1 μM, 2 mg/mL S9 protein, NADPH) [μL/min/mg protein] | microsomal CLint at 1 μM ([1]; Table 1, human liver S9 fraction, read-out: CLint) [µL/min/mg] | half-life at 1 μM ([1]; Table 1, human liver S9 fraction, read-out: Liver S9 t1/2) [min] | pIC50 (MAP2K1 (MEK1))
1 | Cn1c(Nc2ccc(I)cc2F)c(C(=O)NOC[C@H](O)CO)c2cccnc21 [Example 6, (R)—N-(2,3-Dihydroxypropoxy)-2-((2-fluoro-4-iodophenyl)amino)-1-methyl-1H-pyrrolo[2,3-b]pyridine-3-carboxamide] | 90 | 3.85 | 6.43 | 448 | 81 | – | – | – | –
2 | Cn1c(Nc2ccc(I)cc2F)c(C(=O)NOCC2CC2)c2cccnc21 [Example 7, N-(Cyclopropylmethoxy)-2-((2-fluoro-4-iodophenyl)amino)-1-methyl-1H-pyrrolo[2,3-b]pyridine-3-carboxamide] | – | – | 6.59 | 346 | 346 | 44.80 | 44.8 | 8 | –
3 | COc1cnc2c(c1)c(C(=O)NOCCO)c(Nc1ccc(I)cc1F)n2C [Example 8, 2-((2-Fluoro-4-iodophenyl)amino)—N-(2-hydroxyethoxy)-5-methoxy-1-methyl-1H-pyrrolo[2,3-b]pyridine-3-carboxamide] | 34 | 10.3 | – | – | – | – | – | – | 6.61
4 | Cn1c(Nc2ccc(I)cc2F)c(C(=O)NC[C@H](O)CO)c2cccnc21 [Example 10, (S)—N-(2,3-dihydroxypropyl)-2-((2-fluoro-4-iodophenyl)amino)-1-methyl-1H-pyrrolo[2,3-b]pyridine-3-carboxamide] | 96 | 3.59 | – | – | – | – | – | – | 5.75

Second part, the compound after the results:

Row | half-life at 1 μM [1, 2] [min] | microsomal CLint at 1 μM [1, 3] [µL/min/mg] | pIC50 (MEK1) | GI50 (HCT116 cells) [nM] | GI50 (A375 cells) [nM] | Assay 5: human liver S9 instrinsic clearance value ([1]; Table 2, 1 μM, 2 mg/mL S9 protein, NADPH) [μL/min/mg protein] | microsomal CLint at 1 μM ([1]; Table 1, human liver S9 fraction, read-out: CLint) [µL/min/mg] | half-life at 1 μM ([1]; Table 1, human liver S9 fraction, read-out: Liver S9 t1/2) [min] | pIC50 (MAP2K1 (MEK1)) | Compound
5 | 21 | 16.5 | 6.17 | 5010 | 809 | – | – | – | – | Cn1c(Nc2ccc(I)cc2F)c(C(=O)NO)c2cccnc21 [Example 4, 2-((2-Fluoro-4-iodophenyl)amino)—N-hydroxy-1-methyl-1H-pyrrolo[2,3-b]pyridine-3-carboxamide]
6 | 105 | 3.29 | – | – | – | – | – | – | 5.75 | Cn1c(Nc2ccc(I)cc2F)c(C(=O)NC[C@@H](O)CO)c2cccnc21 [Example 12, (R)—N-(2,3-dihydroxypropyl)-2-((2-fluoro-4-iodophenyl)amino)-1-methyl-1H-pyrrolo[2,3-b]pyridine-3-carboxamide]
7 | 23 | 15.4 | – | – | – | – | – | – | 5.02 | Cn1c(Nc2ccc(I)cc2F)c(C(N)=O)c2cccnc21 [Example 13, 2-(2-Fluoro-4-iodoanilino)-1-methyl-1H-pyrrolo[2,3-b]pyridine-3-carboxamide]
